Experimental data from US7919671B2, “Method for testing a compound for a therapeutic effect and a diagnostic method” (Chempath Oy, priority 2004, dated 2011).

Each molecule was assayed against T1, human PAP (Homo sapiens, UniProt P15309) (assay: protein overlay assay of PAP binding to immobilized phospholipids (PIP Strips)). Settings: 100 pmole lipid per spot on nitrocellulose strip; 10 μg/ml or 50 μg/ml human PAP, overnight at +4° C.
T1 sequence (P15309 33-386): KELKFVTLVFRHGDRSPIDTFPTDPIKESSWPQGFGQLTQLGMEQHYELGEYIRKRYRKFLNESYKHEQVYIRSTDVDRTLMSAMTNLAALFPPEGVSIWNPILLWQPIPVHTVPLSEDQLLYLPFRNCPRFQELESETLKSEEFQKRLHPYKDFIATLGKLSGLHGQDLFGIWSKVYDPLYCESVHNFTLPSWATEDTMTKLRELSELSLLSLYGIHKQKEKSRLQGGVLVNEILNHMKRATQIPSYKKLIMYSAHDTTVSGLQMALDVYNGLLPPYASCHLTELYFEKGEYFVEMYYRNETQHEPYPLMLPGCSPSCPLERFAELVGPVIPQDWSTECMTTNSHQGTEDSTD
Method: (D) The phospholipid binding properties of PAP. Nitrocellulose-immobilized phospholipids at 100 pmole per spot. The lipids, indicated by dashed circles, are: 1. lysophosphatidic acid, 2. lysophosphocholine, 3. PI; 4. PI(3)P; 5. PI(4)P; 6. PI(5)P; 7. phosphatidyletanolamine; 8. phosphatidylcholine; 9. spingosine-1-phosphate; 10. PI(3,4)P2; 11. PI(3,5)P2; 12. PI(4,5)P2; 13. PI(3,4,5)P3; 14. phosphatidic acid; 15. phosphatidylserine; 16. blank. The strip was incubated with human PAP at concentration 10 μg/ml.
The interaction between PAP and PI lipids was investigated using protein overlay assay.
The binding of human PAP to phospholipids was screened using PIP Strips™ (Echelon Bioscience). 100 pmole of lysophosphatidic acid, lysophosphocholine, PI, PI(3)P, PI(4)P, PI(5)P, phosphatidyletanolamine, phosphatidylcholine, sphingosine-1-phosphate, PI(3,4)P2, PI(3,5)P2, PI(4,5)P2, PI(3,4,5)P3, phosphatidic acid, and phosphatidylserine was immobilized on a nitrocellulose strip. The strip was incubated with 10 μg/ml or 50 μg/ml human PAP in 4% non-fat dry milk (Valio) in TBS-T overnight at +4° C. The bound PAP was detected using polyclonal PAP antibody produced by us (Vihko et al., 1978, Clin. Chem. 24, 1915-1919), alkalinephosphatase conjugated secondary antibody (Sigma), and the NBT/BCIP color reaction assay (Promega).

Molecule | binding of PAP to the lipid
phosphatidylethanolamine | no affinity
lysophosphocholine | no affinity
CCCCCCCCCCCCC/C=C/[C@@H](O)[C@@H](N)COP(=O)(O)O [sphingosine-1-phosphate] | no affinity
phosphatidylcholine | no affinity
phosphatidylserine | no affinity
lysophosphatidic acid | no affinity
PI(3,5)P2 | no affinity
PI(3,4)P2 | no affinity

Next, values leading:

binding of PAP to the lipid | Molecule
no affinity | phosphatidylinositol 4-phosphate [PI(4)P]
no affinity | phosphatidic acid
no affinity | Phosphatidylinositol [PI]
binds strongly | CCCCCCCCCCCCCCCC(=O)OC[C@H](COP(=O)(O)O[C@@H]1[C@H](O)[C@H](OP(=O)(O)O)[C@@H](O)[C@H](O)[C@H]1O)OC(=O)CCCCCCCCCCCCCCC [PI(3)P, phosphatidylinositol 3-phosphate]
no affinity | PI(3,4,5)P3
no affinity | PI(5)P
no affinity | PI(4,5)P2

Each molecule was assayed against T2, PAP purified from human spermatic fluid (Homo sapiens, UniProt P15309) (assay: malachite green assay of the PI(3)P phosphatase activity of PAP). Settings: 50 mM MES buffer, pH 6.5; 0.25 μg PAP per reaction; 37° C., 2 and 5 min.
T2 construct: purified from human spermatic fluid as previously described; from tissue; host or cells: human spermatic (seminal) fluid
T2 sequence (P15309 33-386): T1 sequence (P15309 33-386)
Format: biochemical
Method: (E) PI(3)P phosphatase activity of PAP. Phosphatase assays containing 0.01 μg/μl PAP with varying amounts of PI(3)P or buffer were incubated for 5 min at 37° C. and free phosphate was measured by malachite green assay. Initial velocities were calculated from these time courses and plotted against the respective substrate concentration.
To confirm that PAP hydrolyses PI(3)P the lipid phosphatase activity of PAP towards PI(3)P was studied. […] Being sigmoidal, the kinetic curve was inconsistent with Michaelis-Menten kinetics.
A malachite green assay (BIOMOL GREEN™, BIOMOL Research Laboratories, Inc.) adapted to a 96-well format was used to measure the released free-phosphate from PI(3)P (Echelon Bioscience Inc.). Briefly, the reaction (total volume of 25 μl) containing 50 mM MES buffer, pH 6.5 and an indicated amount of PI(3)P, was initiated by adding the PAP (0.25 μg per reaction) purified from human spermatic fluid as previously described (specific activity of the enzyme 397 μmol min^−1 mg^−1) (Vihko et al. 1978, Clin. Chem. 24, 1915-1919). After incubation at 37° C. for 2 and 5 min the reaction was terminated by adding 100 μl of BIOMOL GREEN reagent. The green color was allowed to develop for 20 min at room temperature and absorbance was measured at 650 nm. The phosphate released was quantified by comparing to inorganic phosphate standards. […]

lipid phosphatase activity of PAP towards the lipid (use as a substrate) | Molecule
utilizes PI(3)P as a substrate | CCCCCCCCCCCCCCCC(=O)OC[C@H](COP(=O)(O)O[C@@H]1[C@H](O)[C@H](OP(=O)(O)O)[C@@H](O)[C@H](O)[C@H]1O)OC(=O)CCCCCCCCCCCCCCC [PI(3)P, phosphatidylinositol 3-phosphate]

Same assay, conditions: 50 mM MES buffer, pH 6.5; 37° C.; inconsistent with Michaelis-Menten kinetics

shape of the kinetic curve (initial velocity against substrate concentration) | Molecule
sigmoidal | CCCCCCCCCCCCCCCC(=O)OC[C@H](COP(=O)(O)O[C@@H]1[C@H](O)[C@H](OP(=O)(O)O)[C@@H](O)[C@H](O)[C@H]1O)OC(=O)CCCCCCCCCCCCCCC [PI(3)P, phosphatidylinositol 3-phosphate]
